Several values for one entry are separate records, joined by “and”; a condition that tells them apart may be missing. Equal values may be shown once. Entries after “also recorded” stand apart in the source; their conditions may differ.
Columns and labels:
[1] = Penetration of 14C AWD 12-281 through murine back skin (Franz diffusion cell); assay type: in vitro ADME, mouse
Protocol: FIG. 1: Cutaneous permeation of ^14C AWD 12-281 measured using a “Franz” diffusion cell and murine back skin. Activity of ^14C AWD 12-281 was measured in […] during 360 min incubation. Results of two independent experiments. 15 μl (110322970 dpm) of ^14C AWD 12-281 (dissolved in acetone/DMSO 1:1) was applied to the shaved skin.
The ability of ^14C AWD 12-281 to penetrate through murine back skin was tested in a diffusion cell (Franz cell). Dry shaved murine back skin was set onto the diffusion cell so that 1.5 cm (diameter) of the dermal side were in contact with warmed (34° C.) buffer (bovine serum). 15 μl (110322970 dpm) of ^14C AWD 12-281 (dissolved in acetone/DMSO 1:1) were applied to the shaved skin. Samples were taken 15, 60, 120, 180, 240, 300, 360 min and the radioactivity was measured in a β counter (Beckman, Munich, Germany). The experiment was performed twice.

[2] = system: mice sensitized to TDI; test: Mouse ear swelling test in mice sensitized to toluene-2,4-diisocyanate (TDI), topical application; assay type: in vivo, BALB/c-mice; settings: for TDI-induced ear swelling: AWD 12-281 1%, cilomilast 3%, diflorasone 0.05%
Protocol: FIG. 6: Effect of PDE 4 inhibitors on TDI induced ear swelling in mice. […] After 1 h (grey bars) groups of mice were treated with 3% AWD 12-281, 10% cilomilast or left untreated (TDI). After 24 h, ear swelling was determined (black bars). […] Female BALB/c-mice were obtained from Charles River (Sulzfeld, Germany) at the age of 8 weeks (20 g body weight). All animals were healthy and were housed in groups of six mice per cage at 22° C. with a 12-h light/dark-cycle. Water and a standard diet (Altromin, […], Germany) were available ad libitum. After settling in for 1 week, the abdominal skin of the mice was shaved and depilated with Veet®. Subsequently, the horny layers of the abdominal skin were stripped off ten times with adhesive tapes. […] Before as well as 24 h after challenge, the ear thickness was measured with a cutimeter (model 7309, Mitutoyo, Neuss, Germany) The swelling was calculated by comparison of the values before challenge with 24 h after challenge. […] The other mice were equally distributed to the treatment groups (n=6) according to their swelling intensity, so that each group contained animals which had responded to varying extents. They had to rest until the ear thickness had reached almost a normal level after 7 days. To exclude residues of the allergen on the ears, the untreated right ears were used for the main experiment. One group of mice (n=6) was not sensitized and challenged. […] Two hours before TDI-challenge, the third and fourth group (each n=6) were treated with 20 μl (10 μl on both, the inner and outer surface) AWD 12-281 (1%=200 μg) or 20 μl cilomilast (3%=600 μg; each in acetone/DMSO 9:1) to the right ears. […] These mice were sacrificed by cervical dislocation 24 hours after TDI challenge and the ears were collected (see below). […] Five weeks after the first challenge, the animals treated with AWD 12-281 (1%) and cilomilast (3%) “therapeutically” were challenged again. Before challenge, one group was treated with AWD 12-281 (3%).

[3] = system: granulocyte influx in the dermis of mice ears; test: Histological examination of mouse ear skin after TDI challenge; assay type: in vivo, BALB/c-mice
Protocol: (§1) One part of the collected ears was fixed in 4% formaldehyde for histological section and stained with haematoxylin-eosin with respect to dermal thickness and granulocyte accumulation. These parameters were measured in 10 fields at 40 times magnification. The remaining tissue was shock-frozen and stored in liquid nitrogen immediately after sampling. For the determination of biochemical parameters, the mice ears were homogenized under liquid nitrogen. The homogenates were taken in 200 μl RPMI 1640 medium and the protease inhibitor Pefabloc® (1 mmol) was added and the samples were mixed intensively. After centrifugation (10000 g, 10 min, 4° C.), the supernatant was collected and the protein content was determined. The samples were stored at −80° C. until the cytokines were determined. Interleukin (IL) 4, IL-6 and MIP-2 were measured in the samples by ELISA using commercially available kits according to manufacturers instructions.

[4] = system: interleukin 4; test: IL-4 in homogenized mouse ears after TDI challenge (ELISA); assay type: in vivo, BALB/c-mice
Protocol: as §1

[5] = system: interleukin 6; test: IL-6 in homogenized mouse ears after TDI challenge (ELISA); assay type: in vivo, BALB/c-mice
Protocol: as §1

[6] = system: macrophage inflammatory protein 2; test: MIP-2 in homogenized mouse ears after TDI challenge (ELISA); assay type: in vivo, BALB/c-mice
Protocol: as §1

[7] = system: PDE4; settings: Griswold et al., 1998, Kuss et al., 2002; cited from earlier work
[8] = system: passively sensitized human airways; settings: Schmidt et al., 2000; cited from earlier work
[9] = system: human cells from nasal polyps; settings: antigen stimulated; Kuss et al., 2002; cited from earlier work
[10] = system: human eosinophils; settings: in vitro; Ezeamuzie, 2001; cited from earlier work
[11] = system: sensitized Brown Norway rats; settings: late phase airway reaction to antigen; Kuss et al., 2002; cited from earlier work
[12] = system: domestic pigs; settings: Kuss et al., 2002; cited from earlier work
[13] = 24 h after TDI challenge, AWD 12-281 3%, rechallenge
[14] = 24 h after TDI challenge, topical 2 h before challenge, AWD 12-281 1%, cilomilast 3%, diflorasone 0.05%
[15] = AWD 12-281 3%, cilomilast 3%, diflorasone 0.05%, 24 h after TDI challenge

O=C(Nc1c(Cl)cncc1Cl)C(=O)c1cn(Cc2ccc(F)cc2)c2ccc(O)cc12 [AWD 12-281, N-(3,5-Dichloro-4-pyridinyl)-2-[1-(4-fluoro-benzyl)-5-hydroxy-1 H-indol-3-yl]-2-oxoacetamide]
amount of radioactivity measured in buffer, % of the total activity (cumulative absorption) ([1]; 14C AWD 12-281 in acetone/DMSO 1:1 on shaved murine back skin, 360 min (6 h) after application, two independent experiments): 0.22% and 0.08%
absorption compared to hydrocortisone ([1]; AWD 12-281 murine skin after 6 h vs hydrocortisone in human skin in Franz cells (Hueber et al., 1994)): tenfold higher absorption compared to hydrocortisone
Ear swelling (%) ([2]; AWD 12-281 3% topical before challenge, rechallenge five weeks after first challenge, 24 h after TDI challenge, vehicle control 51 ± 7, mean ± s.e.): 1 ± 2 %
TDI-induced ear swelling ([2]; single topical application 2 h before TDI challenge, 1, 5 and 24 h after challenge): inhibited the TDI-induced swelling significantly at all measured times
TDI-induced ear swelling ([2]; topical 1 h after TDI challenge (therapeutic), 24 h after challenge): reduced the inflammatory response to TDI significantly; also recorded: inhibited the TDI induced ear swelling significantly
TDI-induced ear swelling ([2]; topical 1 h after TDI challenge (therapeutic), 24 h after challenge, listed as AWD12-281): significant inhibition of ear swelling
TDI induced ear swelling ([2]; treated 1 h after 0.5% TDI, 3% AWD 12-281, 10% cilomilast, ear swelling after 24 h (FIG. 6)): reduced ear swelling significantly
inflammatory cells and vascular leakage, histological examination ([3]; AWD 12-281 (3%) treated mouse ears, long term exposure study (not shown)): nearly total absense of inflammatory cells and vascular leakage
edema and influx of inflammatory cells (mainly granulocytes) ([3]; mouse ear skin 24 h after TDI challenge, topical treatment): inhibited these inflammatory processes markedly
concentration of interleukin 4 in mouse skin [4, 13]: inhibited the increase significantly
concentration of interleukin 4 in homogenized mouse ears [4, 14]: reduced the increase slightly; also recorded: slight inhibitory effect
IL-4, mean inhibition (%) of the TDI induced synthesis [4, 15]: 80% and 81%
IL-4 ([4]; AWD 12-281 3%, homogenized mouse ears 24 h after TDI challenge (rechallenge), vehicle control 67 ± 2, mean ± s.e.): 12 ± 3 pg/400 µg protein
concentration of interleukin 6 in mouse skin [5, 13]: inhibited this response significantly
concentration of interleukin 6 in homogenized mouse ears [5, 14]: weak significantly; also recorded: inhibited this response significantly; also recorded: only a slight effect
IL-6, mean inhibition (%) of the TDI induced synthesis [5, 15]: 52%
IL-6 ([5]; AWD 12-281 3%, homogenized mouse ears 24 h after TDI challenge (rechallenge), vehicle control 89 ± 5, mean ± s.e.): 42 ± 6 pg/400 µg protein
concentration of MIP-2 in mouse skin [6, 13]: diminished the increase of the MIP-2 concentration significantly
concentration of macrophage inflammatory protein 2 in homogenized mouse ears [6, 14]: reduced the increase slightly; also recorded: reduced this increase slightly
MIP-2, mean inhibition (%) of the TDI induced synthesis [6, 15]: 75%
MIP-2 ([6]; AWD 12-281 3%, homogenized mouse ears 24 h after TDI challenge (rechallenge), vehicle control 286 ± 39, mean ± s.e.): 72 ± 8 pg/400 µg protein
IC50 for PDE4 relative to cilomilast [7]: about ten times lower than that of cilomilast
bronchospasmogenic effect of an allergen [8]: significantly reduced the bronchospasmogenic effect of an allergen
release of inflammatory mediators such as GM-CSF, TNF-α and histamine [9]: inhibited the release of inflammatory mediators
degranulation of human eosinophils [10]: inhibited the degranulation
accumulation of eosinophils in bronchoalveolar lavage [11]: significantly reduced the accumulation of eosinophils
LPS induced lung neutrophilia [12]: inhibitory effects

Reference: patent publication US20040038958A1, “Topical treatment of skin diseases” (priority 2002, published 2004)
